Assay results as given in patent publication US10584369B2, “Cell-based methods for measuring activity of a protein inhibitor” (priority 2013, dated 2020).
pEC50: −log10 of the molar value.

Columns and labels:
wild-type human CDK3 = biological target: T1, wild-type human CDK3 (Homo sapiens, UniProt Q00526); experiment: Cell-based assay for CDK3 inhibition: fraction of Tomato+ MDA-MB-157 cells infected with wild-type CDK3-expressing lentivirus
T1 construct: Full-length cDNAs of wild-type human CDK3; expressed in transfected cells; host or cells: MDA-MB-157 breast carcinoma cells, lentiviral vector pHIV-dTomato
Description: MDA-MB-157 cells were cultured in RPMI with 10% FBS+PS 1× and Glu 1×.
In the experiment shown in FIG. 2, MDA-MB-157 cells were plated at 10^5 cells per well of a 6-well plate and infected with 1 ml of lentiviral stocks expressing wild-type CDK3 or E195D CDK3 mutant, with 1× polybrene solution. 24 hrs post-infection, the media were changed to virus-free polybrene-free media. 8 days post-infection (FIG. 2) or 23 days post-infection (FIG. 2), the samples were immediately analyzed for Tomato (red fluorescent marker carried in the vector) fluorescence using Becton-Dickinson LSRII flow cytometer. The fraction of the infected cells was defined as the percentage of Tomato+cells.
In this experiment, MDA-MB-157 cells were plated at 5×10^5 cells per P100 plate. Cells were infected with 5 ml of media supernatant containing the wild-type CDK3 lentivirus, with 1× polybrene solution. 24 hrs post-infection, the media were changed to virus-free polybrene-free media. 48 hrs post-infection, cells were replated into 24-well plates, at 25,000 cells per well. The culture media (1 ml volume) in each well contained the CDK3 inhibitor SNX9-1-20 at 2, 1.75, 1.5, 1.25, 1, 0.9, 0.75, 0.5, 0.35, 0.2 and 0 μM (DMSO 0.1%), in duplicates. […] 4′,6-diamidino-2-phenylindole (DAPI) was added to the final concentration of 1 μg/ml and the samples were analyzed for DAPI and Tomato fluorescence using the flow cytometer.

wild-type human CDK2 = biological target: T2, wild-type human CDK2 (Homo sapiens, UniProt P24941); experiment: Cell-based assay for CDK2 inhibition: fraction of Tomato+ MDA-MB-157 cells infected with wild-type CDK2-expressing lentivirus
T2 construct: Full-length cDNAs of wild-type human CDK2 conjugated with a HA tag; expressed in transfected cells; host or cells: MDA-MB-157 breast carcinoma cells, lentiviral vector pHIV-dTomato
Description: MDA-MB-157 cells were cultured in RPMI with 10% FBS+PS 1X and Glu 1X.
In this experiment, MDA-MB-157 cells were plated at 5×10^5 cells per P100 plate. Cells were infected with 5 ml of media supernatant containing the wild-type of both CDK3 and CDK2 lentivirus, with 1 × polybrene solution. 24 hrs post-infection, the media were changed to virus-free polybrene-free media. 48 hrs post-infection, cells were replated into 24-well plates, at 25,000 cells per well. […] On day 5 after plating, the cells were harvested, centrifuged, suspended in RPMI and aliquoted at 200 μl per well into 96-well plates. 4′,6-diamidino-2-phenylindole (DAPI) was added to the final concentration of 1 μg/ml and the samples were analyzed for DAPI and Tomato fluorescence using the flow cytometer.

CC(C)[C@H](CO)Nc1nc(Nc2cccc(Cl)c2)c2ncn(C(C)C)c2n1 [Purvalanol-A, Purvalanol A]
fraction of infected (Tomato+) cells, wild-type CDK3 lentivirus (wild-type human CDK3; 1.6 μM inhibitor, day 5 after plating, Example 2 (without inhibitor: 48.85% SNX9-1-20 experiment, 14.8% Purvalanol-A experiment)): 66.5%
pEC50 (wild-type human CDK3; Example 2, FIG. 4 and FIG. 5, day 5, read-out: concentration producing half-maximal effect on the increase in the fraction of cells infected with the wild-type CDK3 lentivirus): 6.22
fraction of wild-type CDK2 infected (Tomato+) cells (wild-type human CDK2; 1.6 μM inhibitor, day 5 after plating, 25.5% in the absence of inhibitor, FIG. 5): 65.25%
pEC50 (wild-type human CDK2; Example 2, FIG. 5, day 5, read-out: concentration producing half-maximal effect on the increase in the fraction of infected cells (printed: wild-type CDK3 lentivirus; follows the CDK2 result)): 6.70
